Series [1] has as its target T1, telomerase (Homo sapiens, UniProt O14746).
T1 construct: A549 cells (human epithelial cell lung carcinoma, ATCC, Manassas, VA) were lysed in; host or cells: A549 cell lysate (CHAPS extract, 5 µg total protein)
The series is described as follows: TRAP / RTQ-TRAP telomerase activity assay in A549 cell-free lysates.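 Further: telomerase activity measured in cell-free extracts of human A549 epithelial lung carcinoma cells, tested across a range of inhibitor concentrations.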 The series is classed as biochemical. As to conditions: telomerase inhibition, mean ± SEM.
Protocol: In cell-free investigations, human A549 (epithelial cell lung carcinoma) lysates were utilized to evaluate telomerase with various inhibitor concentrations. […] The Telomeric Repeat Amplification Protocol (TRAP) [61] was used to evaluate the activity of telomerase, with some changes that we have previously described [62, 63]. A549 cells (human epithelial cell lung carcinoma, ATCC, Manassas, VA) were lysed in (10 mM) Tris-HCl, pH 7.5, (1 mM) EGTA, (1 mM) MgCl2, (5 mM) 2-mercaptoethanol, (0.1 mM) PMSF, (0.5%) CHAPS, and (10%) glycerol (Sigma-Aldrich, St. Louis, MO, USA) and centrifugation. The supernatants were kept at -80 °C. The BCA-1 Protein Assay Kit was used to assess the protein concentration in cell extracts (Sigma-Aldrich, St. Louis, MO, USA). […] To inactivate telomerase, the cells were elongated for 30 min at 37 °C and 10 min at 96 °C. Copy CX-primer was added to the elongation mixture along with 0.1 μL ([NT]) and 2.5 units Taq-polymerase, followed by the following PCR: 94 °C for 5 min; 30 cycles of 94 °C for 30 s, 50 °C for 30 s, and 72 °C for 40 s, and 72 °C for 5 min. […] The gels were stained with the SYBR Green I (Invitrogen, Grand Island, NY, USA), then photographed under the UV light in ChemiDocTM XRS imaging system and analyzed with GelAnalyzer 2010. Analysis was carried out using SPSS 25 software, a 2-way ANOVA, and a student's t-test (IBM SPSS Statistics, Armonk, NY, USA). The mean ± SEM is used to express the findings. The significance level was set at p ≤ 0.05. […] According to Sebaugh J.L., et al.'s guidelines, the values were assessed using the Prism 6 software (GraphPad, San Diego, CA, USA) [65].

SMILES strings stand for the structures.

Usually IC50 stands for the point on the concentration scale where inhibition reaches its midpoint. A higher IC50 goes with a need for much substance. For orientation: IC90 means the point of the concentration-response curve where the effect stands at 90%. The low end stands for an effect from little substance, the high end for a need for much substance. What is called melting point is the temperature, or range, at which the solid turns liquid.

T1 sequence (O14746 whole entry): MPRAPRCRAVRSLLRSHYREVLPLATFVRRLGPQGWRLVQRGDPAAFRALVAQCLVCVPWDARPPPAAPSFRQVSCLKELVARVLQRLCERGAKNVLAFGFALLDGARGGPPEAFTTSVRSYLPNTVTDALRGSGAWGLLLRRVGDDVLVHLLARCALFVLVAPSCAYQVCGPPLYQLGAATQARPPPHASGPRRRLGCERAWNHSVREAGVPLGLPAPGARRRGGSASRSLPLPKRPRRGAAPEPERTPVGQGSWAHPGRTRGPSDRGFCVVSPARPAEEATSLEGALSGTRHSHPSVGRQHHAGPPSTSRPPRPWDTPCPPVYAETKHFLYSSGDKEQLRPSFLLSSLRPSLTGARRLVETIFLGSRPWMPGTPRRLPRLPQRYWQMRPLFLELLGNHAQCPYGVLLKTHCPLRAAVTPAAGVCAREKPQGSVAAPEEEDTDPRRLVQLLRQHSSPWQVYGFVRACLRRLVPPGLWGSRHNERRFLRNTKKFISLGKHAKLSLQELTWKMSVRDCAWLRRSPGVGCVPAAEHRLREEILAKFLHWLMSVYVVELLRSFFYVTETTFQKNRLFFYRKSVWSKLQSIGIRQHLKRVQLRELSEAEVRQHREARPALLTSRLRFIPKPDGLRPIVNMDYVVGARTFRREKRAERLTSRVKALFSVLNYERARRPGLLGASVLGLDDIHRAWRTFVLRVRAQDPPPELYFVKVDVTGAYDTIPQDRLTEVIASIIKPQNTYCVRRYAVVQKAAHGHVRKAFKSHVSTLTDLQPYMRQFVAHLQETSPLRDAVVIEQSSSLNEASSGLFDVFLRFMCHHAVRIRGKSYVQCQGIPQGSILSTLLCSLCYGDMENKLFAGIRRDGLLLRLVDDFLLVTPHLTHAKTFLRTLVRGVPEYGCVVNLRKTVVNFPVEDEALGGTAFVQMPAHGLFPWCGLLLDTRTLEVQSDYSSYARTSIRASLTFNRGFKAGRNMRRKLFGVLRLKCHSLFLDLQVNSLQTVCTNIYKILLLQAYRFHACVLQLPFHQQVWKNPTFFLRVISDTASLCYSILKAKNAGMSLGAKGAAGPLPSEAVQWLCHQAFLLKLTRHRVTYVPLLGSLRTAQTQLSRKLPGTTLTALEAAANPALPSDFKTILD
T1 sequence (O60832 whole entry partner): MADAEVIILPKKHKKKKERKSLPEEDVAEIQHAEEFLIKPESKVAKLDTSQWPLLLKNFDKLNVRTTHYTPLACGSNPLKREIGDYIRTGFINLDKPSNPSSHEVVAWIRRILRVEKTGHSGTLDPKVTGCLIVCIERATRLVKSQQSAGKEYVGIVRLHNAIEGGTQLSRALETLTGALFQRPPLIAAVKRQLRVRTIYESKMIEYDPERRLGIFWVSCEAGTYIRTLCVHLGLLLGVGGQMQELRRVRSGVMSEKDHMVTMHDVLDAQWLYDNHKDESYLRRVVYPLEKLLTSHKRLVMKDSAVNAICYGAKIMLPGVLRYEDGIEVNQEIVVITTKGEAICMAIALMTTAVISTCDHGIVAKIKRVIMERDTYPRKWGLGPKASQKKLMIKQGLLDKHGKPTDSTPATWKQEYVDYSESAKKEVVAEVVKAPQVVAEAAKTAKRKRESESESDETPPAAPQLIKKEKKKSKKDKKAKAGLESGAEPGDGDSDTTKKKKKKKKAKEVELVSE
T1 sequence (Q9NX24 whole entry partner): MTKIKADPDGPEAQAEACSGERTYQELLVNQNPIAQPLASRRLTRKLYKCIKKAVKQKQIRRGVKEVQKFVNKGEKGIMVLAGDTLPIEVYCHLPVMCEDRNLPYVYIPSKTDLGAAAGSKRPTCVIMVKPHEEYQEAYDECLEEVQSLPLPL
T1 sequence (Q9NPE3 whole entry partner): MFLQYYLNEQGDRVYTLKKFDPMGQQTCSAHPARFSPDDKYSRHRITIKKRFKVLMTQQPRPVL
T1 sequence (Q9NY12 whole entry partner): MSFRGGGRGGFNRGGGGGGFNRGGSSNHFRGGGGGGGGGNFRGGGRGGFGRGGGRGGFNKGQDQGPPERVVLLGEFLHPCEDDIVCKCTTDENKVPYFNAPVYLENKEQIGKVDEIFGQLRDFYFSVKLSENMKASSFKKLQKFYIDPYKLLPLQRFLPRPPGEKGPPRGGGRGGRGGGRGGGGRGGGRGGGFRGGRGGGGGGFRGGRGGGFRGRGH
T1 sequence (Q9BUR4 whole entry partner): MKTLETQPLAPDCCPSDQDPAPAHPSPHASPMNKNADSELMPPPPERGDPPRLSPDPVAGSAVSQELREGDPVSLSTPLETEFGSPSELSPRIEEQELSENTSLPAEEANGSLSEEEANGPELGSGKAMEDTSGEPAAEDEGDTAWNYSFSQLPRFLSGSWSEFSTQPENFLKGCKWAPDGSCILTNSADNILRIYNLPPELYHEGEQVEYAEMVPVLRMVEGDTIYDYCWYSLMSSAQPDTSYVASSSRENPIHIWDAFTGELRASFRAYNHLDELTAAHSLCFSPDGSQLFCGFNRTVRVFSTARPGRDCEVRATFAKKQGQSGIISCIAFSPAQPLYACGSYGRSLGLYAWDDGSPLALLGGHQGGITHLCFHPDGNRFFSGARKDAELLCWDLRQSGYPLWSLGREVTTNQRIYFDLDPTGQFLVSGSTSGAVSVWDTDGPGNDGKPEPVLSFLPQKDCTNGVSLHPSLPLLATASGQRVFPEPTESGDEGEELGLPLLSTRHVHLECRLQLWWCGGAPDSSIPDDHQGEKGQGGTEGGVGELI

Regarding `N#C/C(=C\c1ccc(C(F)(F)F)cc1)C(=O)Nc1sc2c(c1C#N)CCC2` [Compound 25a, (2E/2Z)-2-Cyano-N-{3-cyano-4H,5H,6H-cyclopenta[b]thiophen-2-yl}-3-[4-(trifluoromethyl)phenyl]prop-2-enamide], the melting point lay in the range of 354 to 356 °C. In series [1], the midpoint of inhibition, the IC50, lay at 20.9 ± 0.7 µM and it took 109 ± 3.2 µM to reach the 90% level (IC90).
Take `N#C/C(=C\c1ccc(C(F)(F)F)cc1)C(=O)Nc1sc2c(c1C#N)CCCC2` [Compound 25b, (2E)-2-Cyano-N-(3-cyano-4,5,6,7-tetrahydro-1-benzothiophen-2-yl)-3-[4-(trifluoromethyl)phenyl]prop-2-enamide]: the melting point lay in the range of 225 to 227 °C. Besides, in series [1], the half-maximal inhibitory concentration (IC50) is 25.8 ± 1 µM and the 90% effect level (IC90) was put at 140 ± 4.7 µM.
In series [1], `COc1ccc(/C=C(\C#N)C(=O)Nc2sc3c(c2C#N)CCC3)cc1OC` [Compound 26a, (2E)-2-Cyano-N-{3-cyano-4H,5H,6H-cyclopenta[b]thiophen-2-yl}-3-(3,4-dimethoxyphenyl)prop-2-enamide] had a half-maximal inhibitory concentration (IC50) of 13.5 ± 0.6 µM and an IC90 of 154 µM.
In series [1], `COc1ccc(/C=C(\C#N)C(=O)Nc2sc3c(c2C#N)CCCC3)cc1OC` [Compound 26b, (2E)-2-Cyano-N-(3-cyano-4,5,6,7-tetrahydro-1-benzothiophen-2-yl)-3-(3,4-dimethoxyphenyl)prop-2-enamide] displayed an IC50 of 53.6 ± 1.8 µM and a 90% effect concentration (IC90) of 751 µM.
In the case of `N#C/C(=C\c1ccc(Cl)c(Cl)c1)C(=O)Nc1sc2c(c1C#N)CCC2` [Compound 27a, (2E/2Z)-2-Cyano-N-{3-cyano-4H,5H,6H-cyclopenta[b]thiophen-2-yl}-3-(3,4-dichlorophenyl)prop-2-enamide], the melting point lay in the range of 329 to 331 °C. Moreover, in series [1], the IC50 was 6.5 ± 0.3 µM and the concentration for an effect of 90% (IC90) was 164 µM.
On the same counts, the results for `N#C/C(=C\c1ccc(Cl)c(Cl)c1)C(=O)Nc1sc2c(c1C#N)CCCC2` [Compound 27b, (2E/2Z)-2-Cyano-N-(3-cyano-4,5,6,7-tetrahydro-1-benzothiophen-2-yl)-3-(3,4-dichlorophenyl)prop-2-enamide] are 376 to 378 °C, 12.5 ± 0.6 µM and 138 µM.
On the same counts, the results for `N#C/C(=C\c1cccc(Cl)c1Cl)C(=O)Nc1sc2c(c1C#N)CCC2` [Compound 28a, (2E/2Z)-2-Cyano-N-{3-cyano-4H,5H,6H-cyclopenta[b]thiophen-2-yl}-3-(2,3-dichlorophenyl)prop-2-enamide] are 302 to 304 °C, 6.7 ± 0.1 µM and 67.8 µM.
Regarding `N#C/C(=C\c1cccc(Cl)c1Cl)C(=O)Nc1sc2c(c1C#N)CCCC2` [Compound 28b, (2E)-2-Cyano-N-(3-cyano-4,5,6,7-tetrahydro-1-benzothiophen-2-yl)-3-(2,3-dichlorophenyl)prop-2-enamide], the melting point fell in the range of 232 to 234 °C. Also, in series [1], the half-maximal inhibitory concentration (IC50) stood at 8.3 ± 0.3 µM and the IC90 was found to be 57.4 µM.
Turning to `N#C/C(=C\c1ccc(N2CCCCC2)cc1)C(=O)Nc1sc2c(c1C#N)CCCC2` [Compound 29b, (2E)-2-Cyano-N-(3-cyano-4,5,6,7-tetrahydro-1-benzothiophen-2-yl)-3-[4-(piperidin-1-yl)phenyl]prop-2-enamide], the melting point lay within 262 to 264 °C. In series [1], this compound returned an IC50 of 4.8 ± 0.2 µM and an IC90 of 32.8 ± 1.5 µM.
Regarding `N#C/C(=C\c1ccc(N2CCOCC2)cc1)C(=O)Nc1sc2c(c1C#N)CCC2` [Compound 30a, (2E)-2-Cyano-N-{3-cyano-4H,5H,6H-cyclopenta[b]thiophen-2-yl}-3-[4-(morpholin-4-yl)phenyl]prop-2-enamide], in series [1], the half-maximal inhibitory concentration (IC50) turned out to be 5.2 ± 0.2 µM and it took 112 ± 3.6 µM to reach the 90% level (IC90).
The compound `N#C/C(=C\c1ccc(N2CCOCC2)cc1)C(=O)Nc1sc2c(c1C#N)CCCC2` [Compound 30b, (2E)-2-Cyano-N-(3-cyano-4,5,6,7-tetrahydro-1-benzothiophen-2-yl)-3-[4-(morpholin-4-yl)phenyl]prop-2-enamide] returned a melting point of 246 to 248 °C. Besides, in series [1], half-maximal inhibition (IC50) required 5.9 ± 0.2 µM and it took 119 ± 4.6 µM to reach the 90% level (IC90).
Take `CN1CCN(c2ccc(/C=C(\C#N)C(=O)Nc3sc4c(c3C#N)CCC4)cc2)CC1` [Compound 31a, (2E)-2-Cyano-N-{3-cyano-4H,5H,6H-cyclopenta[b]thiophen-2-yl}-3-[4-(4-methylpiperazin-1-yl)phenyl]prop-2-enamide]: in series [1], the concentration for half-maximal inhibition (IC50) turned out to be 98.5 ± 3.8 µM and the IC90 turned out to be 200 µM.
Consider `CN1CCN(c2ccc(/C=C(\C#N)C(=O)Nc3sc4c(c3C#N)CCCC4)cc2)CC1` [Compound 31b, (2E)-2-Cyano-N-(3-cyano-4,5,6,7-tetrahydro-1-benzothiophen-2-yl)-3-[4-(4-methylpiperazin-1-yl)phenyl]prop-2-enamide], for which the melting point was 257 to 259 °C. For the same compound, in series [1], the IC50 was 89.9 ± 3.6 µM and the 90% effect concentration (IC90) worked out at 165 µM.
`COc1cc(/C=C(\C#N)C(=O)Nc2sc3c(c2C#N)CCC3)ccc1OCc1ccccc1` [Compound 32a, (2E)-3-[4-(Benzyloxy)-3-methoxyphenyl]-2-cyano-N-{3-cyano-4H,5H,6H-cyclopenta[b]thiophen-2-yl}prop-2-enamide]: the melting point was in the range of 233 to 235 °C. In series [1], this compound returned a 50% inhibitory concentration (IC50) of 6.4 ± 0.2 µM and a concentration for an effect of 90% (IC90) of 177 µM.
On the same counts, the results for `COc1cc(/C=C(\C#N)C(=O)Nc2sc3c(c2C#N)CCCC3)ccc1OCc1ccccc1` [Compound 32b, (2E)-3-[4-(Benzyloxy)-3-methoxyphenyl]-2-cyano-N-(3-cyano-4,5,6,7-tetrahydro-1-benzothiophen-2-yl)prop-2-enamide] are 220 to 222 °C, 110 ± 3.7 µM and 181 µM.
Turning to `Cc1nn(-c2ccccc2)cc1/C=C(\C#N)C(=O)Nc1sc2c(c1C#N)CCC2` [Compound 33a, (2E)-2-Cyano-N-{3-cyano-4H,5H,6H-cyclopenta[b]thiophen-2-yl}-3-(3-methyl-1-phenyl-1H-pyrazol-4-yl)prop-2-enamide], in series [1], half-maximal inhibition (IC50) was put at 205 ± 4 µM and the concentration for an effect of 90% (IC90) worked out at 643 µM.
`Cc1nn(-c2ccccc2)cc1/C=C(\C#N)C(=O)Nc1sc2c(c1C#N)CCCC2` [Compound 33b, (2E)-2-Cyano-N-(3-cyano-4,5,6,7-tetrahydro-1-benzothiophen-2-yl)-3-(3-methyl-1-phenyl-1H-pyrazol-4-yl)prop-2-enamide] yielded a melting point of 256 to 258 °C. In series [1], this compound yielded an IC50 of 178 ± 3.3 µM and a concentration for an effect of 90% (IC90) of 574 µM.
On the same counts, the results for `N#C/C(=C\c1c[nH]nc1-c1ccccc1)C(=O)Nc1sc2c(c1C#N)CCC2` [Compound 34a, (2E)-2-Cyano-N-{3-cyano-4H,5H,6H-cyclopenta[b]thiophen-2-yl}-3-(3-phenyl-1H-pyrazol-4-yl)prop-2-enamide] are 226 to 228 °C, 189 ± 6.4 µM and 1080 µM.
For `N#C/C(=C\c1c[nH]nc1-c1ccccc1)C(=O)Nc1sc2c(c1C#N)CCCC2` [Compound 34b, (2E)-2-Cyano-N-(3-cyano-4,5,6,7-tetrahydro-1-benzothiophen-2-yl)-3-(3-phenyl-1H-pyrazol-4-yl)prop-2-enamide], in that order: 263 to 265 °C, 38.8 ± 1 µM and 284 ± 6.6 µM.
In series [1], `N#C/C(=C\c1cccc2ccccc12)C(=O)Nc1sc2c(c1C#N)CCC2` [Compound 35a, (2E)-2-Cyano-N-{3-cyano-4H,5H,6H-cyclopenta[b]thiophen-2-yl}-3-(naphthalen-1-yl)prop-2-enamide] came in with an IC50 of 5.1 ± 0.2 µM and an IC90 of 31.1 ± 1.1 µM.
For `N#C/C(=C\c1cccc2ccccc12)C(=O)Nc1sc2c(c1C#N)CCCC2` [Compound 35b, (2E)-2-Cyano-N-(3-cyano-4,5,6,7-tetrahydro-1-benzothiophen-2-yl)-3-(naphthalen-1-yl)prop-2-enamide], in that order: 5.3 ± 0.2 µM and 18.6 ± 0.9 µM.
In the case of `N#C/C(=C\c1ccc2ccccc2c1)C(=O)Nc1sc2c(c1C#N)CCC2` [Compound 36a, (2E)-2-Cyano-N-{3-cyano-4H,5H,6H-cyclopenta[b]thiophen-2-yl}-3-(naphthalen-2-yl)prop-2-enamide], in series [1], the half-inhibitory concentration (IC50) was determined as 5.2 ± 0.2 µM and the IC90 is 34.9 ± 1.6 µM.
`N#C/C(=C\c1cccc2c1OCO2)C(=O)Nc1sc2c(c1C#N)CCC2` [Compound 37a, (2E)-3-(2H-1,3-Benzodioxol-4-yl)-2-cyano-N-{3-cyano-4H,5H,6H-cyclopenta[b]thiophen-2-yl}prop-2-enamide] came in with a melting point of 286 to 288 °C. In series [1], this compound yielded an IC50 of 23.5 ± 0.9 µM and an IC90 of 137 ± 2.6 µM.
On the same counts, the results for `N#C/C(=C\c1cccc2c1OCO2)C(=O)Nc1sc2c(c1C#N)CCCC2` [Compound 37b, (2E)-3-(2H-1,3-Benzodioxol-4-yl)-2-cyano-N-(3-cyano-4,5,6,7-tetrahydro-1-benzothiophen-2-yl)prop-2-enamide] are 226 to 228 °C, 97.8 ± 2.6 µM and 174 µM.
The compound `N#C/C(=C\c1ccc2c(c1)OCO2)C(=O)Nc1sc2c(c1C#N)CCC2` [Compound 38a, (2E)-3-(2H-1,3-Benzodioxol-5-yl)-2-cyano-N-{3-cyano-4H,5H,6H-cyclopenta[b]thiophen-2-yl}prop-2-enamide] yielded a melting point of 219 to 221 °C. In series [1], inhibition was half-maximal at 25.4 ± 1 µM (IC50) and the 90% effect level (IC90) was put at 282 µM.
With `N#C/C(=C\c1ccc2c(c1)OCO2)C(=O)Nc1sc2c(c1C#N)CCCC2` [Compound 38b, (2E)-3-(2H-1,3-Benzodioxol-5-yl)-2-cyano-N-(3-cyano-4,5,6,7-tetrahydro-1-benzothiophen-2-yl)prop-2-enamide], the melting point fell in the range of 204 to 206 °C. In series [1], this compound showed an IC50 of 40.3 ± 1.7 µM and an IC90 of 339 µM.
`N#C/C(=C\c1c[nH]c2ccccc12)C(=O)Nc1sc2c(c1C#N)CCC2` [Compound 39a, (2E)-2-Cyano-N-{3-cyano-4H,5H,6H-cyclopenta[b]thiophen-2-yl}-3-(1H-indol-3-yl)prop-2-enamide] gave a melting point of 284 to 286 °C. In addition, in series [1], inhibition was half-maximal at 2.5 ± 0.1 µM (IC50) and it took 9.5 ± 0.3 µM to reach the 90% level (IC90).

For the origin of these results see paper PMC9025901, “New Genetic Bomb Trigger: Design, Synthesis, Molecular Dynamics Simulation, and Biological Evaluation of Novel BIBR1532-Related Analogs Targeting Telomerase against Non-Small Cell Lung Cancer” (Pharmaceuticals, 2022).
